Experimental findings from patent publication US11844847B2, “Sulfur-containing polymerizable monomer and use thereof” (SUN MEDICAL CO., LTD., priority 2018, dated 2023) are described below.

The nature of the series: Solubility evaluation: solution stirred 0.5 hours, visually inspected for insolubles. In kind it is physicochemical. How it is done: Solutions were obtained by adding the sulfur-containing compound of the amount described in Table 1 or Table 1a to the amount described in Table 1 or Table 1a of the organic solvent or the radically polymerizable monomer.
The solutions obtained were stirred with a magnetic stirrer for 0.5 hours and were then visually inspected for the presence of insolubles. The solutions were evaluated as ◯ when the solution was transparent and free from insolubles, as Δ when the solution was turbid but free from insolubles, and as x when insolubles were present. The solubility evaluations in Tables 3 to 6 are also based on the same criteria.

Where [1] appears, read: 2.6 parts sulfur-containing compound in 97.4 parts acetone.
The mark [2] stands for this setting: added to acetone at a concentration of 20 mass %.
Setting [3] is: 2.6 parts sulfur-containing compound in 97.4 parts IPA.
[4] abbreviates: 2.6 parts sulfur-containing compound in 97.4 parts MMA.
[5] abbreviates: 20 parts sulfur-containing compound in 80 parts acetone.
Where [6] appears, read: 0.65 parts sulfur-containing compound in 99.35 parts IPA.

Consider `C=Cc1ccc(CN(CCC)c2nc(=S)[nH]c(=S)[nH]2)cc1` [VBATDT, 6-(4-Vinylbenzyl-n-propyl)amino-1,3,5-triazine-2,4-dithione, reference compound], for which the Solubility entry runs as follows: (0.5 parts sulfur-containing compound in 99.5 parts acetone) “∘”; under setting [1], “∘”. The “solubility (in words)” value reads like this: under setting [2], “generated insolubles”; (with respect to IPA and MMA) “low solubility”.

For `C=C(C)C(=O)OCCCCCCCCCCC1NC(=S)NC1=O` (stereo not drawn) [a24, 10-(5-oxo-2-thioxoimidazolidin-4-yl)decyl methacrylate], the Solubility result was “∘” under setting [3], “∘” under setting [4] and “∘” under setting [5].

For `C=C(C)C(=O)OCCCCCC=C1NC(=S)NC1=O` [a21, 6-(5-oxo-2-thioxoimidazolidin-4-ylidene)hexyl methacrylate], the Solubility entry was “∘” under setting [6], “∘” under setting [4] and “∘” (10 parts sulfur-containing compound in 90 parts acetone).

`C=C(C)C(=O)OCCCCCCCC=C1NC(=S)NC1=O` [a23, 8-(5-oxo-2-thioxoimidazolidin-4-ylidene)octyl methacrylate]: the Solubility entry is, setting by setting: under setting [3], “∘”; under setting [4], “∘”; under setting [5], “∘”.

Regarding `C=C(C)C(=O)OCCOC(=O)CCC1NC(=S)NC1=O` (stereo not drawn) [2-THPEM, 2-((3-(5-oxo-2-thioxoimidazolidin-4-yl)propanoyl)oxy)ethyl methacrylate], the Solubility result is, setting by setting: under setting [3], “∘”; under setting [4], “∘”; under setting [1], “∘”.

As to `C=C(C)C(=O)OCCCCCCOC(=O)CCC1NC(=S)NC1=O` (stereo not drawn) [6-THPHM, 6-((3-(5-oxo-2-thioxoimidazolidin-4-yl)propanoyl)oxy)hexyl methacrylate], the Solubility result under setting [3] was “∘”, the Solubility entry under setting [4] was “∘” and the Solubility entry under setting [1] is “∘”.

Regarding `C=C(C)C(=O)OCCCCCCC1NC(=S)NC1=O` (stereo not drawn) [a20, 6-(5-oxo-2-thioxoimidazolidin-4-yl)hexyl methacrylate], the Solubility result was “∘” under setting [3], “∘” under setting [4] and “∘” under setting [5].

With `C=C(C)C(=O)OCCCCCCCCCC=C1NC(=S)NC1=O` [a25, 10-(5-oxo-2-thioxoimidazolidin-4-ylidene)decyl methacrylate], the Solubility entry under setting [3] was “∘”, the Solubility entry under setting [4] is “∘” and the Solubility result under setting [5] was “∘”.

As for `C=C(C)C(=O)OCCCCCCCCCCOC(=O)CCC1NC(=S)NC1=O` (stereo not drawn) [10-THPDM, 10-((3-(5-oxo-2-thioxoimidazolidin-4-yl)propanoyl)oxy)decyl methacrylate], the Solubility result runs as follows: under setting [6], “∘”; (0.65 parts sulfur-containing compound in 99.35 parts MMA) “∘”; (0.65 parts sulfur-containing compound in 99.35 parts acetone) “∘”; under setting [3], “∘”; under setting [4], “∘”; under setting [1], “∘”. Also, the Solubility result under setting [5] is reported as “∘”. Further, the “solubility (in words)” value under setting [2] is on record as “dissolved completely”.

On to `C=C(C)C(=O)OCCCCOC(=O)CCC1NC(=S)NC1=O` (stereo not drawn) [4-THPBM, 4-((3-(5-oxo-2-thioxoimidazolidin-4-yl)propanoyl)oxy)butyl methacrylate], for which the Solubility result is reported as “∘” under setting [3], “∘” under setting [4] and “∘” under setting [1].
